Test: Thermo Scientific Acclaim RSLC 120 C18, 100 × 2.1 mm, 2.2 µm, 30 °C, 0.2 to 0.48 mL/min, estimated dead time 1.1 min; A: 90% water + 10% methanol + 5 mM ammonium acetate; B: methanol + 5 mM ammonium acetate; gradient (min/%B) 0.1/1 3/39 14/99.9 16/99.9
Conditions: stereoisomer not certain

Compound | LC retention time
Nc1ccc(O)c(C(=O)O)c1 | 2.04 min
CCCCN1CCCCC1C(=O)Nc1c(C)cccc1C (centres undefined) | 10.7 min
CC12CCC3C(CCC4=CC(=O)CCC43C)C1CCC2=O (centres undefined) | 13.1 min
COC(=O)C(Cc1ccccc1)NC(=O)C(N)CC(=O)O (centres undefined) | 4.98 min
CC(C)Cc1ccc(C(C)C(=O)O)cc1 (centres undefined) | 9.72 min
CC(C)C(N)C(=O)OCC(CO)OCn1cnc2c(=O)[nH]c(N)nc21 (centres undefined) | 4.08 min
CCCCc1c(C)nc(NCC)nc1OS(=O)(=O)N(C)C | 10.5 min
CNC(=N[N+](=O)[O-])NCC1CCOC1 (centres undefined) | 3.59 min
COC=C(C(=O)O)c1ccccc1Oc1cc(Oc2ccccc2C#N)ncn1 | 7.94 min
CNCC(c1ccc(OC)cc1)C1(O)CCCCC1 (centres undefined) | 6.12 min
O=[N+]([O-])c1ccc(O)c([N+](=O)[O-])c1 | 4.5 min
CCc1cccc(C)c1N(C(=O)C(=O)O)C(C)COC (centres undefined) | 8.29 min
O=C(O)C(c1ccccc1)C1CCCCN1 (centres undefined) | 5.27 min
CCOC(=O)CSc1nc(C(C)(C)C)nn1C(=O)N(C)C | 6.37 min
CC(C)C1(C)N=C(c2nc3ccccc3cc2C(=O)O)NC1=O (centres undefined) | 4.85 min
CCc1ccc(C(=O)NN(C(=O)c2cc(C)cc(C)c2)C(C)(C)C)cc1 | 10.4 min
Cc1c(NC=O)c(=O)n(-c2ccccc2)n1C | 4.51 min
COc1ccc2cc(C(C)C(=O)O)ccc2c1 (centres undefined) | 6.74 min
CNC(=O)CSP(=S)(OC)OC | 5.25 min
O=C1NS(=O)(=O)c2ccccc21 | 3.09 min
COc1cc(NS(=O)(=O)c2ccc(NC(C)=O)cc2)nc(OC)n1 | 5.09 min
Cc1ccc(C(C)NC(=O)C(NC(=O)OC(C)C)C(C)C)cc1 (centres undefined) | 9.8 min
COC(=O)C(Cc1ccccc1)NC(=O)C(CC(=O)O)NCCC(C)(C)C (centres undefined) | 10.2 min

Compound | LC retention time
CCNCC(=O)Nc1c(C)cccc1C | 5.99 min
CC(C)(C#N)c1cc(Cn2cncn2)cc(C(C)(C)C#N)c1 | 6.38 min
CC1=CC(=O)NS(=O)(=O)O1 | 2.34 min
CC1CC(=O)CC2CCC3C4CCC(O)C4(C)CCC3C12C (centres undefined) | 14.4 min
CC(=O)Nc1cc(S(=O)(=O)O)cc2cc(S(=O)(=O)O)c(N=Nc3ccccc3)c(O)c12 | 4.56 min
CC12CCC3c4ccc(O)c(O)c4CCC3C1CCC2=O (centres undefined) | 9.89 min
CC12C=CC3=C4CCC(=O)C=C4CCC3C1CCC2O (centres undefined) | 9.17 min
CSc1nnc(C(C)(C)C)c(=O)[nH]1 | 8.04 min
Cc1ccc(C)c(OCCCC(C)(C)C(=O)O)c1 | 10.9 min
COC(=O)C1CC2=CC(=O)CCC2(C)C23OC2CC2(C)C(CCC24CCC(=O)O4)C13 (centres undefined) | 6.74 min
CCCCc1ncc(C=C(Cc2cccs2)C(=O)O)n1Cc1ccc(C(=O)O)cc1 | 6.51 min
CC(C)N1C(=O)c2ccccc2NS1(=O)=O | 4.49 min
Nc1nc2ccccc2[nH]1 | 5.11 min
COC(=O)c1ccc(C)cc1C1=NC(C)(C(C)C)C(=O)N1 (centres undefined) | 7.15 min
CCC1(c2ccccc2)C(=O)NC(=O)NC1=O | 6.1 min
CNC(=C[N+](=O)[O-])NCCSCc1ccc(C[N+](C)(C)[O-])o1 | 3.98 min
COc1cc(S(=O)(=O)O)c(C)cc1N=Nc1c(O)ccc2cc(S(=O)(=O)O)ccc12 | 2.88 min
CC(C)(C)c1cc([N+](=O)[O-])cc([N+](=O)[O-])c1O | 8.13 min
CNCC(O)c1cccc(O)c1 (centres undefined) | 3.24 min
COC1CC(OC2C(C)OC(OC3C(C)=CCC4CC(CC5(C=CC(C)C(C(C)C)O5)O4)OC(=O)C4C=C(C)C(O)C5OCC(=CC=CC3C)C45O)CC2OC)OC(C)C1O (centres undefined) | 13.4 min
CC(C(=O)O)c1cccc(C(=O)c2ccccc2)c1 (centres undefined) | 6.77 min
COc1ccc(CC(C)NCC(O)c2ccc(O)c(NC=O)c2)cc1 (centres undefined) | 5.91 min
CC(C)Nc1nc(N)[nH]c(=O)n1 | 4.08 min

Compound | LC retention time
CC1CCCCC1NC(=O)Nc1ccccc1 (centres undefined) | 9.15 min
CC(=O)NCCCS(=O)(=O)O | 1.46 min
COc1ccc(-c2ccccc2)cc1NNC(=O)OC(C)C | 9.82 min
CCc1cccc(CC)c1N(COC)C(=O)CS(=O)(=O)O | 8.02 min
O=c1nccc[nH]1 | 5.01 min
CCCCOc1ccc(CC(=O)NO)cc1 | 9.24 min
O=[N+]([O-])c1cc(C2CCCCC2)c(O)c([N+](=O)[O-])c1 | 9.19 min
Cc1nnc(-c2ccccc2)c(=O)n1N | 5.22 min
CCc1cccc(CC)c1N(COC)C(=O)C(=O)O | 7.69 min
O=C(O)c1ccccc1S | 5.44 min
CCCCc1c(C)nc(N(C)C)[nH]c1=O | 7.97 min
CC(C)(C)Nc1nc(N)[nH]c(=O)n1 | 5.42 min
CC(=O)Nc1ccc(S(=O)(=O)Nc2nc(C)cc(C)n2)cc1 | 5.06 min
CCOC(=O)NCCOc1ccc(Oc2ccccc2)cc1 | 10.6 min
NS(=O)(=O)Cc1noc2ccccc12 | 5.17 min
O=C1CC(C(=O)O)CC(=O)C1=C(O)C1CC1 (centres undefined) | 1.49 min
Cc1cn(C2CC(N=[N+]=[N-])C(CO)O2)c(=O)[nH]c1=O (centres undefined) | 5.06 min
C=C(C)C1Cc2c(ccc3c2OC2COc4cc(OC)c(OC)cc4C2C3=O)O1 (centres undefined) | 10.4 min
COCCN(C(=O)CS(=O)(=O)O)c1c(C)cccc1C | 6.16 min
CC(C)C1CCC(C(=O)NC(Cc2ccccc2)C(=O)O)CC1 (centres undefined) | 11.4 min
CCC(=O)OC(OP(=O)(CCCCc1ccccc1)CC(=O)N1CC(C2CCCCC2)CC1C(=O)O)C(C)C (centres undefined) | 13.3 min
CSC1=NC(C)(c2ccccc2)C(=O)N1Nc1ccccc1 (centres undefined) | 9.18 min
CC(C)c1ccc(NC(N)=O)cc1 | 8.81 min

Compound | LC retention time
CCNc1nc(NC(C)C)[nH]c(=O)n1 | 6 min
CC(C)C(NC(=O)C(CC(=O)O)NC(=O)C(CCCCN)NC(=O)C(N)CCCN=C(N)N)C(=O)NC(Cc1ccc(O)cc1)C(=O)O (centres undefined) | 3.16 min
CNC(=O)C(=NOC)c1ccccc1COc1cc(C)ccc1C | 10.6 min
CCc1cccc(C)c1N(C(=O)CS(=O)(=O)O)C(C)COC (centres undefined) | 8.19 min
CNC(=O)ON=C(C)C(C)S(C)=O (centres undefined) | 3.36 min
C=CC(=O)NC(C)(C)CS(=O)(=O)O | 2.5 min
CCCCCCC(C)(C)c1ccc(C2CCCC(O)C2)c(O)c1 (centres undefined) | 13.2 min
CCOP(=S)(NC(C)CC)Oc1cc(C)ccc1[N+](=O)[O-] (centres undefined) | 11.2 min
CCNc1nc(NC(C)(C)C)[nH]c(=O)n1 | 8.46 min
CCN1CCCC1CNC(=O)c1cc(S(N)(=O)=O)ccc1OC (centres undefined) | 4.42 min
Cc1cccc(Nc2ccncc2S(=O)(=O)NC(=O)NC(C)C)c1 | 8.29 min
CC1(c2ccc(Oc3ccccc3)cc2)OC(=O)N(Nc2ccccc2)C1=O (centres undefined) | 11 min
CCN1CCCC1CNC(=O)c1cc(S(=O)(=O)CC)c(N)cc1OC (centres undefined) | 5.08 min
CCCCC(=O)N(Cc1ccc(-c2ccccc2-c2nn[nH]n2)cc1)C(C(=O)O)C(C)C (centres undefined) | 8.17 min
NC(=O)N1c2ccccc2C2OC2c2ccccc21 (centres undefined) | 8.47 min
CC(C(=O)O)c1ccc(C2CCCCC2)c2ccccc12 (centres undefined) | 11.2 min
CCC(C)c1cc([N+](=O)[O-])cc([N+](=O)[O-])c1O (centres undefined) | 7.92 min
NCC1(CC(=O)O)CCCCC1 | 4.08 min
CC(N)C12CC3CC(CC(C3)C1)C2 (centres undefined) | 3.19 min
Cc1ccccc1C(=O)Nc1cccc(OC(C)C)c1 | 9.58 min
CCCCc1oc2ccc(NS(C)(=O)=O)cc2c1C(=O)c1ccc(OCCCN(CCCC)CCCC)cc1 | 13.3 min
COC(=O)c1ccccc1CS(=O)(=O)NC(=O)Nc1nc(OC)cc(OC)n1 | 7.66 min
COc1ccc(C(O)(c2cncnc2)C2CC2)cc1 (centres undefined) | 7.12 min

Compound | LC retention time
COCC(C)N(C(=O)CS(=O)(=O)O)c1c(C)csc1C (centres undefined) | 6.97 min
CCCCCc1cc(O)c2c(c1)OC(C)(C)C1CCC(CO)=CC21 (centres undefined) | 12.3 min
S=c1nc[nH]c2nc[nH]c12 | 2.62 min
CCCCNc1cc(C(=O)O)cc(S(N)(=O)=O)c1Oc1ccccc1 | 6.73 min
Cc1nnc(-c2ccccc2)c(=O)[nH]1 | 5.72 min
CCOc1ccc(NC(=O)OC(C)C)cc1OCC | 9.01 min
CCCCC1=NC2(CCCC2)C(=O)N1Cc1ccc(-c2ccccc2-c2nn[nH]n2)cc1 | 10.1 min
CC12CCC3c4ccc(O)cc4CCC3C1CC(O)C2O (centres undefined) | 7.82 min
NS(=O)(=O)c1ccccc1 | 3.92 min
Oc1ccc(C=Cc2cc(O)cc(O)c2)cc1 | 6.82 min
CS(=O)(=O)Nc1ccc([N+](=O)[O-])cc1Oc1ccccc1 | 8.24 min
O=c1[nH]cnc2[nH]ncc12 | 3.04 min
Nc1ncnc2c1ncn2C1OC(CO)C(O)C1O (centres undefined) | 3.84 min
CC12C=CC(=O)C=C1CCC1C2C(=O)CC2(C)C1CCC2(O)C(=O)CO (centres undefined) | 8.31 min
O=C(O)c1cccc(Oc2ccccc2)c1 | 7.77 min
CCC(C)(CC)c1cc(NC(=O)c2c(OC)cccc2OC)on1 | 9.39 min
CC(C)(C)CC(C)(C)c1ccc(O)cc1 | 12.3 min
CNCC(O)c1ccc(O)cc1 (centres undefined) | 2.26 min
CCC1(O)CCC2C3CCC4=CC(=O)CCC4C3CCC21C (centres undefined) | 14 min
COC(=O)Nc1nc2ccccc2[nH]1 | 5.8 min
CCCCCCCCCC(Oc1ccccc1)C(=O)O (centres undefined) | 11.4 min
On1nnc2ccccc21 | 3.69 min
